Where two headings read alike, the source gives them in different places.
What was measured:
Assay type in all cases: cell-based, mouse
[1] = system: SCp2 cells; assay: Invasion assay in Boyden chambers; conditions: for invasion of FL and EA-SCp2 cells: SCp2 overexpressing MMP3 constructs containing the hemopexin domain; for invasion of dPEX-SCp2 or control cells: SCp2 with hemopexin-deleted MMP3 or control vector
Description: Cell culture inserts (8 μm, 24-well format; BD Biosciences) were evenly coated with 20 μL of diluted (1:5 in DMEM/F-12 medium) Matrigel (BD Biosciences). Cells (1×10^5) in 200 μL of DMEM/F-12 medium or different CM (as indicated in each experiment) were added to the upper compartment of the chamber. The lower compartment of the chamber was filled with 300 μL of medium containing 10% FBS as a chemoattractant. After 48 h of incubation at 37° C., the top side of the insert was cleared from noninvasive cells with a cotton swab and washed with serum-free DMEM/F-12. The remaining (invasive) cells at the lower surface of the filter were fixed and stained with a solution of Coomassie Blue 0.125% in methanol:acetic acid:H2O (45%:10%:45% [v/v/v]) for 15 min. Invasive cells were scored by counting 10×20 magnification fields per filter with a Zeiss Imager Z1 microscope using a 20× objective. Mouse embryonic fibroblast NIH/3T3 cells were routinely included as a positive control. Results are expressed as mean±SD from three independent experiments.

[2] = system: primary mammary organoids and EpH4 cells; assay: Branching morphogenesis (invasion/branching) assay in collagen-1 gels; conditions: 9 nM FGF2, inhibitors 40 μM; for invasion/branching in sparse CL-1 gels: sparse CL-1 1 mg/ml
Description: Single cells were removed by centrifugation and the clusters were then washed three times with DMEM/F12. Cell clusters and primary organoids were embedded in collagen-1 gels. Briefly, acid-extracted type I collagen (Koken, Tokyo, Japan) was mixed gently on ice (8 vol) with 1 vol of 10×DMEM/F12, then pH is adjusted to 7.4 with 0.1N NaOH. Collagen solution was added into each well of a 48-well plate, which was then incubated at 37° C. to allow gelation. EpH4 cell clusters or primary organoids were suspended in collagen at 3 mg/ml or 1 mg/ml, poured onto the basal collagen layer and placed at 37° C. for gelation. After gelation of the collagen, growth medium containing 9 nM FGF2 was added to the wells. Branching morphogenesis was assessed using a Nikon Diaphot 300 microscope and clusters were scored as positive when displaying three or more branches of length at least half the diameter of the central cell cluster.

[3] = system: Erk; assay: Immunoblot of phospho-Erk / total Erk (MAPK activity); conditions: EpH4 cells in CL-1 gels
Description: Samples were lysed using modified RIPA buffer (50 mM HEPES pH 7.4, 150 mM NaCl, 10% glycerol, 1% Triton X-100, 10 mM sodium pyrophosphate containing 1.5 mM MgCl2, 1 mM EGTA, 1% sodium deoxycholate, 0.25 mM Na3VO4, 100 mM NaF and proteinase inhibitor cocktail (EMD Millipore, Billerica, USA)). Protein concentration was determined using the BCA Protein Assay kit (Thermo Scientific, Waltham, USA), following the manufacturer's instructions. Protein samples (10 μg) were mixed with Laemmeli sample buffer and heated at 95° C. for 5 minutes. Samples were loaded into a pre-cast 4-20% tris-glycine polyacrylamide gel (Invitrogen) using the NOVEX system (Invitrogen). Resolved proteins were transferred to nitrocellulose membrane (Whatman, Maidstone, UK) followed by blocking in PBS, 0.05% Tween-20 with 5% w/v non-fat dry milk for 1 hour at room temperature (RT). Membranes were incubated overnight at 4° C. in 5% BSA, 0.1% Tween-20 in PBS containing antibodies that recognize either phosphorylated Erk1/2, total Erk1/2 (Cell Signaling). […] Primary antibodies were detected with HRP conjugated anti-IgG (Thermo) and the Pierce SuperSignal detection kit. Chemiluminescence ignal was captured with a FluorChem 8900 analysis system (Alpha Innotech, San Leandro, USA).

[4] = system: Mmp14 and Itgb1; assay: Immunoblot of Mmp14 and Itgb1 levels in EpH4 cells
Description: Samples were lysed using modified RIPA buffer (50 mM HEPES pH 7.4, 150 mM NaCl, 10% glycerol, 1% Triton X-100, 10 mM sodium pyrophosphate containing 1.5 mM MgCl2, 1 mM EGTA, 1% sodium deoxycholate, 0.25 mM Na3VO4, 100 mM NaF and proteinase inhibitor cocktail (EMD Millipore, Billerica, USA)). Protein concentration was determined using the BCA Protein Assay kit (Thermo Scientific, Waltham, USA), following the manufacturer's instructions. Protein samples (10 μg) were mixed with Laemmeli sample buffer and heated at 95° C. for 5 minutes. Samples were loaded into a pre-cast 4-20% tris-glycine polyacrylamide gel (Invitrogen) using the NOVEX system (Invitrogen). Resolved proteins were transferred to nitrocellulose membrane (Whatman, Maidstone, UK) followed by blocking in PBS, 0.05% Tween-20 with 5% w/v non-fat dry milk for 1 hour at room temperature (RT). Membranes were incubated overnight at 4° C. in 5% BSA, 0.1% Tween-20 in PBS containing antibodies that recognize either phosphorylated Erk1/2, total Erk1/2 (Cell Signaling). Anti-Mmp14 (Abcam, Cambridge, USA), anti-Itgb1 (Santa Cruz Biotechnology, Santa Cruz, USA), anti-Itgb1 p788/789 (Abcam), anti-LAM A/C (Santa Cruz Biotechnology), anti-Actin (Abcam), anti-FLAG (Sigma) and rabbit IgG (Sigma) antibodies were used for immunoblotting. Primary antibodies were detected with HRP conjugated anti-IgG (Thermo) and the Pierce SuperSignal detection kit. Chemiluminescence ignal was captured with a FluorChem 8900 analysis system (Alpha Innotech, San Leandro, USA).

[5] = system: primary mammary organoids; assay: Branching morphogenesis assay of primary mammary organoids in 3D Col-1 gels
Description: Primary organoids or clustered EpH4 cells were embedded in 3D Col-1 gels as previously published (Simian et al. 2001; Mori et al. 2013). In brief, acid-solubilized Col-1 solution was mixed gently on ice with 1 vol of 10×DMEM/F-12 (pH adjusted to 7.4 with 0.1 M NaOH), and the concentration was adjusted to 3 mg/mL with DMEM/F-12. A basal layer of 80 μL of Col-1 was poured into each well of an eight-well chambered coverglass (155409, Thermo Scientific) and allowed to gel for 5 min at 37° C. A second layer of 200 μL of Col-1 containing 150 organoids or EpH4 clusters was added to each well and placed immediately at 37° C. After gelation, 400 μL of chemically defined medium (DMEM/F-12 containing 1% insulin/transferrin/selenium, 1% penicilin/streptomycin) with 9 nM TGFα (Sigma) or 9 nM bFGF (Sigma) was added to each well (unless stated otherwise) and replaced every other day.
After 3 d of culture, gels were fixed with 4% formalin for 30 min and stained with phalloidin and DAPI for 1 h. Structures were imaged with an upright Zeiss LSM710 using a 0.8 NA 20× air objective. […] The number of extending processes and their average length were determined using the Imaris program (Bitplane). […] Fifty structures were counted per condition, and the experiments were executed at least three times.

## CCc1cc(-c2n[nH]c(C)c2-c2ccc3c(c2)OCCO3)c(O)cc1O [CCT018159]
[1]
  invasion of FL and EA-SCp2 cells: reduced invasion
  invasion of dPEX-SCp2 or control cells: no significant effect

## CNC(=O)[C@H](Cc1c[nH]c2ccccc12)NC(=O)[C@@H](CC(=O)NO)CC(C)C [GM6001]
[2]; dense CL-1 3 mg/ml
  invasion/branching in dense CL-1 gels: completely abrogated
[2]
  invasion/branching in sparse CL-1 gels: still invaded
[3]
  MAPK activation (pErk/total Erk): did not change

## COc1cccc(-c2cc(=O)c3ccccc3o2)c1N [PD98059]
[2]
  invasion/branching in sparse CL-1 gels: reduced invasion/branching
[4]
  Itgb1 level: reduced
  Mmp14 level: reduced
[4]; listed as PD95089
  Itgb1 level: reduced expression
  Mmp14 level: reduced expression

## recombinant HSP90β: recombinant HSP90β protein purchased from Calbiochem/EMD Millipore
[1]
  invasion of FL and EA-SCp2 cells: enhanced invasion significantly
  invasion of dPEX-SCp2 or control cells: did not raise the invasive potential
[5]; 3 mg/mL Col-1, 3 d, TGFα
  invasion and branching of mammary organoids: most exuberant branched structures
[5]; organoids overexpressing FL MMP3, 3 mg/mL Col-1, 3 d
  spatial network per organoid: longest spatial network observed so far
